Where two headings read alike, the source gives them in different places.
Legend:
[1] = test system: Wnt activity (Sp5-Luc reporter in SW480 colon carcinoma cells); test: Wnt activity screening assay (Sp5-Luc reporter gene assay); type: cell-based, human; conditions: Homo sapiens; for EC50: Sp5-Luc reporter, SW480 cells, 36 to 48 hours; for inhibition at 10 µM: SW480, read-out: percent inhibition at 10 μM
Procedure, shortened: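 Compounds at 10 points (1:3 steps, top 10 μM, 0.1% DMSO final) were incubated 36 to 48 h at 37° C with stable Sp5-Luc SW480 reporter cells in 1% FBS medium. Luciferase luminescence was then read and expressed relative to DMSO-only cells. Four-parameter variable-slope fitting yielded EC50 values.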

[2] = test system: Tau phosphorylation at Ser396 (pSer396), SH-SY5Y cells; test: Tau phosphorylation at Ser396 (pSer396) in SH-SY5Y cells, ELISA/western blot; type: cell-based, human; conditions: Homo sapiens; SH-SY5Y cells, overnight (16-18 h); read-out: pSer396 Tau EC50;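 also: cell lysates probed for reduced Tau pSer396 via ELISA (colorimetric) or western blot (chemiluminescence), both with one shared pSer396 antibody, EC50 for lowering phosphorylation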
DYRK1A kinase = DYRK1A kinase (Homo sapiens (Human), UniProt Q13627); test: DYRK1A kinase assay (Ser/Thr 18 peptide Z-lyte, FRET)
Experimental: Each compound was dissolved in DMSO as a 10 mM stock and used to prepare compound source plates.
This is a non-radioactive assay using fluorescence resonance energy transfer (FRET) between coumarin and fluorescein to detect kinase activity which is represented as a ratio of coumarin emission/fluorescein emission.
The mixture was allowed to incubate with the representative compounds for one hour at room temperature. All reactions were performed in duplicate. Unphosphorylated (“0% Control”) and phosphorylated (“100% control”) forms of Ser/Thr 18 served as control reactions. Additionally, an 11-point dose-response curve of Staurosporine (1 uM top) was run to serve as a positive compound control.
After incubation, Development Reagent A was diluted in Development Buffer then added to the reaction and allowed to further incubate for one hour at room temperature.
The percent phosphorylation was then calculated using the following formula: [1−((Em ratio×F100%)−C100%)/((C0%−C100%)+(Em ratio×(F100%−F0%)))]. Dose-response curves were generated and inhibitory concentration (IC50) values were calculated using non-linear regression curve fit in the Dotmatics' Studies Software (Bishops Stortford, UK).

GSK3β kinase = GSK3β kinase (Homo sapiens (Human), UniProt P49841); test: GSK3β kinase assay (Ser/Thr 09 peptide Z-lyte, FRET); type: biochemical; conditions: method text calls the value IC50;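 also: Coumarin/fluorescein emission ratio converted to percent phosphorylation against unphosphorylated (0%) and phosphorylated (100%) controls, 1 h compound incubation at room temperature, 11-point threefold dilutions from 10 µM, run in duplicate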
[3] = test system: LL29 cells (primary human fibroblasts derived from IPF patients), α-smooth muscle actin; test: Inhibition of fibrotic process: αSMA in TGF-β1-treated primary human fibroblasts from IPF patients (LL29 cells); type: cell-based; conditions: Homo sapiens, Fibroblast; for EC50: 96 h, % αSMA-positive LL29 cells, TGF-β1 20 ng/mL, 4 days
Procedure, shortened: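 Read-out is the percentage of αSMA-positive cells by high-content imaging, excluding SYTOX green-positive dead/apoptotic cells, normalized to TGF-β1-only wells on the same plate. LL29 cells were exposed for 4 days at 37 °C to 20 ng/mL TGF-β1 plus 11-point, 2-fold compound dilutions in 0.1% DMSO.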

[4] = test system: SW480 colon carcinoma cells; test: Cell viability assay (CellTiter-Glo) in SW480 cells; type: cell-based, human; conditions: Homo sapiens; for EC50: 96 h, cell viability, SW480 cells, four days, CellTiter-Glo; for inhibition at 10 µM: SW480, read-out: percent inhibition at 10 μM;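 as to all read-outs here: SW480 cells stably carrying an Sp5-luciferase TCF/LEF reporter, luminescent ATP signal as viability measure, DMSO-treated cells as control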
Experimental: Representative compounds were screened using the assay procedure to assess the effect on cell viability as described below.
SW480 colon carcinoma cells were transduced with a lentiviral vector expressing luciferase with a human Sp5 promoter consisting of a sequence of eight TCF/LEF binding sites. SW480 cells stably expressing the Sp5-Luc reporter gene and a hygromycin resistance gene were selected by treatment with 150 μg/mL of hygromycin for 7 days. These stably transduced SW480 cells were expanded in cell culture and used for all further screening activities. Each compound was dissolved in DMSO as a 10 mM stock and used to prepare compound source plates.
For the Cell Viability Assays, the cells were plated at 2,000 cells/well in 384-well plates with a DMEM medium containing 1% fetal bovine serum, and 1% Penicillin-Streptomycin and incubated for four days hours at 37° C. and 5% CO2. Eight replicates of DMSO-treated cells served as controls and cells treated with compound were performed in duplicate.
After incubation, 10 μL of CellTiter-Glo (Promega) was added to each well allowed to incubate for approximately 12 minutes.
Dose-response curves were generated and EC50 concentration values were calculated using non-linear regression curve fit in the GraphPad Prism (San Diego, Calif.) or Dotmatics' Studies Software (Bishops Stortford, UK).

IL-6 = IL-6 inhibition in LPS-stimulated human peripheral blood mononuclear cells (HTRF); type: cell-based; conditions: Homo sapiens, PBMC; for inhibition at 10 µM: read-out: percent value in parentheses below EC50 >10; for EC50: IL-6, LPS-stimulated huPBMCs, HTRF
Procedure, shortened: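 EC50 from a 4-parameter fit of DMSO-normalized HTRF (665/620 nm) IL-6 signal, duplicates. Compound was added to fresh human PBMCs in 1% FBS RPMI for 2 h (top 10 μM, 3-fold, 0.25% DMSO) before 22 h stimulation with LPS at 50 ng/mL, 37 °C.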

[5] = DYRK1A kinase, method text calls the value IC50

GSK3β kinase, sequence (P49841 whole entry): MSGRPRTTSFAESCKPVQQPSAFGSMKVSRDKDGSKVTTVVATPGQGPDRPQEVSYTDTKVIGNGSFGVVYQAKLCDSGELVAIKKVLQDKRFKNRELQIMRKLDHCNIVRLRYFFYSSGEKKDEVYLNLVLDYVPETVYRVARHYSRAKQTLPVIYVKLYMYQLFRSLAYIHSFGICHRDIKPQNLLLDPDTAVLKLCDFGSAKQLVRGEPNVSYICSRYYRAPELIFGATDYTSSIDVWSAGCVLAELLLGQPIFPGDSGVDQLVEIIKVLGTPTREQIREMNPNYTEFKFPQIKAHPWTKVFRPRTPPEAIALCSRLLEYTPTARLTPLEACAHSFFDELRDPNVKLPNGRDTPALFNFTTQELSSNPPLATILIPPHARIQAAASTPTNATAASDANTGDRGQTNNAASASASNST

Compound | EC50 [1] [nM] | EC50 [2] [nM] | EC50 (DYRK1A kinase; [5]) [nM] | EC50 (GSK3β kinase) [nM] | EC50 [4] [nM] | EC50 (IL-6) [nM] | EC50 (DYRK1A kinase) [nM] | EC50 [3] [nM] | inhibition at 10 µM (IL-6) [%] | inhibition at 10 µM [1] [%] | inhibition at 10 µM [4] [%] | inhibition at 10 µM ([3]; read-out: percent inhibition at 10 μM) [%]
[2H]C1([2H])OC([2H])([2H])C([2H])([2H])N(CC(=O)Nc2cc3cc(-c4cnn(C)c4)ccc3cn2)C1([2H])[2H] [Compound 39, N-(6-(1-Methyl-1H-pyrazol-4-yl)isoquinolin-3-yl)-2-(morpholino-d8) acetamide] | > 10000 | 538 | – | 96 | > 10000 | 9400 | 15 | 2590 | – | 36.3 | 27.3 | –
[2H]C1([2H])OC([2H])([2H])C([2H])([2H])N(CC(=O)Nc2cc3cc(-c4cnc(C)o4)ccc3cn2)C1([2H])[2H] [Compound 40, N-(6-(2-Methyloxazol-5-yl)isoquinolin-3-yl)-2-(morpholino-d8)acetamide] | > 10000 | 688 | – | 120 | > 10000 | 9700 | 29 | 3710 | – | 29.6 | 27 | –
[2H]C1([2H])OC([2H])([2H])C([2H])([2H])N(CC(=O)Nc2cc3cc(-c4cnc(C)s4)ccc3cn2)C1([2H])[2H] [Compound 41, N-(6-(2-Methylthiazol-5-yl)isoquinolin-3-yl)-2-(morpholino-d8)acetamide] | > 10000 | 869 | – | 203 | > 10000 | > 10000 | 27 | 1220 | 9.4 | 29.7 | 10.7 | –
C[C@H]1CN(C)CCN1C(=O)Nc1cc2cc(-c3cnn(C)c3)ccc2cn1 [Compound 42, (S)-2,4-Dimethyl-N-(6-(1-methyl-1H-pyrazol-4-yl)isoquinolin-3-yl) piperazine-1-carboxamide] | > 10000 | > 10000 | 12 | 4670 | > 10000 | > 10000 | – | > 10000 | 6.4 | 25.5 | 26.5 | 6.4
COC1CCN(CC(=O)Nc2cc3cc(-c4nnc(C)s4)ccc3cn2)CC1 [Compound 49, 2-(4-Methoxypiperidin-1-yl)-N-(6-(5-methyl-1,3,4-thiadiazol-2-yl)isoquinolin-3-yl)acetamide] | > 10000 | 135 | 21 | 6 | 2900 | > 10000 | – | 643 | 9 | 32.9 | – | –
Cc1ncc(-c2ccc3cnc(NC(=O)N4CC[C@H](NC(C)C)[C@@H](F)C4)cc3c2)o1 [Compound 53, (3 S,4S)-3-Fluoro-4-(isopropylamino)-N-(6-(2-methyloxazol-5-yl)isoquinolin-3-yl)piperidine-1-carboxamide] | 2810 | 2300 | 38 | 366 | 4510 | 9360 | – | 1580 | – | – | – | –
COC1CCN(CC(=O)Nc2cc3cc(-c4cn(C)nn4)ccc3cn2)CC1 [Compound 54, 2-(4-Methoxypiperidin-1-yl)-N-(6-(1-methyl-1H-1,2,3-triazol-4-yl)isoquinolin-3-yl)acetamide] | 943 | 97 | 7 | 6 | 3210 | 9630 | – | 412 | – | – | – | –

Now from value to molecule, other results behind:

EC50 [1] [nM] | EC50 [2] [nM] | EC50 (DYRK1A kinase; [5]) [nM] | EC50 (GSK3β kinase) [nM] | EC50 [4] [nM] | EC50 (IL-6) [nM] | EC50 (DYRK1A kinase) [nM] | Compound | EC50 [3] [nM] | inhibition at 10 µM (IL-6) [%] | inhibition at 10 µM [1] [%] | inhibition at 10 µM [4] [%] | inhibition at 10 µM ([3]; read-out: percent inhibition at 10 μM) [%]
743 | 67 | 6 | 9 | 1080 | > 10000 | – | Cc1nnc(-c2ccc3cnc(NC(=O)C4CCN(CCC(F)(F)F)CC4)cc3c2)s1 [Compound 38, N-(6-(5-Methyl-1,3,4-thiadiazol-2-yl)isoquinolin-3-yl)-1-(3,3,3-trifluoropropyl)piperidine-4-carboxamide] | 112 | 3.2 | – | – | –
239 | 362 | 2 | 66 | 4980 | 1070 | – | Cc1ncc(-c2ccc3cnc(NC(=O)[C@H]4CC[C@H](CO)CC4)cc3c2)o1 [Compound 43, trans-4-(hydroxymethyl)-N-(6-(2-methyloxazol-5-yl)isoquinolin-3-yl)cyclohexane-1-carboxamide] | 230 | – | – | – | –
799 | 445 | 5 | 65 | 2800 | 1130 | – | Cc1ncc(-c2ccc3cnc(NC(=O)[C@H]4CC[C@H](N(C)CC(F)F)CC4)cc3c2)o1 [Compound 44, trans-4-((2,2-Difluoroethyl)(methyl)amino)-N-(6-(2-methyloxazol-5-yl)isoquinolin-3-yl)cyclohexane-1-carboxamide] | 247 | – | – | – | –
730 | 91 | – | 23 | 1040 | 3760 | 6 | Cc1nnc(-c2ccc3cnc(NC(=O)C4CCN(C)CC4)cc3c2)s1 [Compound 46, 1-Methyl-N-(6-(5-methyl-1,3,4-thiadiazol-2-yl)isoquinolin-3-yl)piperidine-4-carboxamide] | 640 | – | – | – | –
917 | 174 | 6 | 65 | 751 | 945 | – | Cc1ncc(-c2ccc3cnc(NC(=O)C4CCN(C)CC4)cc3c2)o1 [Compound 47, 1-Methyl-N-(6-(2-methyloxazol-5-yl)isoquinolin-3-yl)piperidine-4-carboxamide] | 262 | – | – | – | –
820 | 359 | 20 | 54 | 3890 | 9070 | – | COC1CCN(CC(=O)Nc2cc3cc(-c4cnc(C)o4)ccc3cn2)CC1 [Compound 48, 2-(4-Methoxypiperidin-1-yl)-N-(6-(2-methyloxazol-5-yl)isoquinolin-3-yl) acetamide] | 718 | – | – | – | –
28 | 779 | 20 | 218 | > 10000 | 9200 | – | Cc1ncc(-c2ccc3cnc(NC(=O)N4CCC(N5CCOCC5)CC4)cc3c2)o1 [Compound 50, N-(6-(2-Methyloxazol-5-yl)isoquinolin-3-yl)-4-morpholinopiperidine-1-carboxamide] | 1470 | – | – | 43 | –
36 | 656 | 14 | 349 | 3940 | 3240 | – | Cc1ncc(-c2ccc3cnc(NC(=O)N4CC[C@H](N)[C@@H](F)C4)cc3c2)o1 [Compound 51, (3S,4S)-4-Amino-3-fluoro-N-(6-(2-methyloxazol-5-yl)isoquinolin-3-yl) piperidine-1-carboxamide] | 2490 | – | – | – | –
923 | 1100 | 9 | 156 | 3970 | 3700 | – | Cc1ncc(-c2ccc3cnc(NC(=O)N4CCC(N(C)CC(F)F)CC4)cc3c2)o1 [Compound 52, 4-((2,2-Difluoroethyl)(methyl)amino)-N-(6-(2-methyloxazol-5-yl)isoquinolin-3-yl)piperidine-1-carboxamide] | 1730 | – | – | – | –

— patent US10604514B2, “6-(5-membered heteroaryl)isoquinolin-3-yl carboxamides and preparation and use thereof” (Samumed, LLC, priority 2017, dated 2020)
